Assay results as given in publication PMC10813153, “Development of a Novel Covalently Bonded Conjugate of Caprylic Acid Tripeptide (Isoleucine–Leucine–Aspartic Acid) for Wound-Compatible and Injectable Hydrogel to Accelerate Healing” (Biomolecules, 2024).
“Also recorded” adds a separate entry of the source. Where a SMILES comes first, the peptide text is derived from it. The star is where a group is joined. Palmitoyl = CCCCCCCCCCCCCCCC(=O)*; Myristoyl = CCCCCCCCCCCCCC(=O)*; Lauroyl = CCCCCCCCCCCC(=O)*; Octanoyl = CCCCCCCC(=O)*

Legend:
[1] = Hydrogel formation, confirmed by vial inversion method; assay type: physicochemical; details: for Gelation Feature: conjugate 1.5% w/v in PBS saline, pH 6.5–7.8, dissolved at pH 9 then readjusted, sonication, vial inversion; for Gelation Time: time after the pH was adjusted to 7.4; for Concentration at which hydrogel forms in PBS: PBS buffer, remained a solution below, vial inversion test; for Hydrogel stability when shaken by hand: visual, compared with other conjugates
Procedure: Lyophilized fatty acid–peptide conjugates were dissolved in phosphate-buffered saline (PBS) at a final concentration of 0.5% (5.0 mg in 1 mL of PBS), 1.5% (15.0 mg in 1 mL of PBS), and 3% (30.0 mg in 1 mL of PBS). The pH of the peptide solutions was increased to 9.0 by adding 0.1 M NaOH to dissolve the compounds and readjusted to pH 2–8 by the drop-wise addition of 0.1 N HCl, followed by sonication. […] The gel formation was confirmed by the vial inversion method, and photographs were taken.

[2] = Gross assessment of toxicity during wound healing test; design: species or system C57BL/6J mice; details: mouse, in vivo
From the text: The animal use protocol was authorized and approved by the Institutional Animal Care and Use Committee of Louisiana State University Health Sciences Center, New Orleans, and followed the ARRIVE guidelines. Briefly, full-thickness burn wounds (6 mm diameter) were generated in the dorsal skin on both sides along the midline of C57BL/6J mice (female, 18 months old, Jackson Laboratory, Bar Harbor, ME, USA) at 0 days post burn (dpb), similar to the procedures performed by us and others previously. Each treatment group included four mice. […] We monitored mouse health and behavior, including drinking, foraging, grooming, and eating, and we examined all wounds twice per day to ensure that the hydrogel and dressing stayed in place. Wound healing was assessed as described previously. The wounds were photographed, and their areas were calculated using NIH ImageJ software version 1.54d. […] The livers, kidneys, and spleens were also collected, weighed, and measured for size to obtain a gross assessment of toxicity. […] The epithelial gap—i.e., the distance between the neoepithelium emerging from the edges of the wound area—was measured using OLYMPUS OlyVIA software version 3.4.1 (Build 26606), as described previously but with some modifications.

[3] = Hydrogel formation, confirmed by vial inversion method; assay type: physicochemical; details: 1.5% w/v in PBS

SMILES | Gelation Feature [1] | Gelation Time ([1]; 1.5% w/v in PBS) [min] | further results
CCCCCCCC(=O)N[C@H](C(=O)N[C@@H](CC(C)C)C(=O)N[C@@H](CC(=O)O)C(=O)O)[C@@H](C)CC [Compound 5] (Octanoyl-Ile-Leu-Asp-OH) | unable to form a hydrogel at all; also recorded: Not gelate | – | –
CCCCCCCC(=O)N[C@@H](CC(C)C)C(=O)N[C@@H](CC(C)C)C(=O)N[C@@H](CC(=O)O)C(N)=O [Compound 12] (Octanoyl-Leu-Leu-Asp-NH2) | – | 5 | –
CCCCCCCCCCCCCCCC(=O)N[C@H](C(=O)N[C@@H](CC(C)C)C(=O)N[C@@H](CC(=O)O)C(N)=O)[C@@H](C)CC [Compound 4] (Palmitoyl-Ile-Leu-Asp-NH2) | – | 10 | Concentration at which hydrogel forms in PBS [1]: ≥ 0.25 % (w/v)
CCCCCCCC(=O)N[C@@H](CC(C)C)C(=O)N[C@H](C(=O)N[C@@H](CC(=O)O)C(N)=O)[C@@H](C)CC [Compound 15] (Octanoyl-Leu-Ile-Asp-NH2) | – | 5 | –
CCCCCCCC(=O)N[C@H](C(=O)N[C@@H](CC(C)C)C(=O)N[C@@H](CC(=O)O)C(N)=O)[C@@H](C)CC [Compound 2, caprylic acid–isoleucine–leucine–aspartic acid amide conjugate] (Octanoyl-Ile-Leu-Asp-NH2) | – | – | Gel stability at pH 2–8 ([1]; 1.5% w/v in PBS, pH 2–8): gelated and stable; also recorded: formed a hydrogel and stayed gelated; Hydrogel stability when shaken by hand [1]: more stable than either (3) or (4); Systematic or local toxicity during the wound healing test [2]: did not show systematic or local toxicity; Gel stability at pH 10 [3]: no gelation
CCCCCCCC(=O)N[C@H](C(=O)N[C@@H](CC(C)C)C(=O)N[C@@H](CC(=O)O)C(N)=O)C(C)C [Compound 13] (Octanoyl-Val-Leu-Asp-NH2) | – | 6 | –
CCCCCCCC(=O)N[C@H](C(=O)N[C@@H](C)C(=O)N[C@@H](CC(=O)O)C(N)=O)[C@@H](C)CC [Compound 9] (Octanoyl-Ile-Ala-Asp-NH2) | – | 2 | –
CCCCCCCCCCCC(=O)N[C@H](C(=O)N[C@@H](CC(C)C)C(=O)N[C@@H](CC(=O)O)C(=O)O)[C@@H](C)CC [Compound 6] (Lauroyl-Ile-Leu-Asp-OH) | Hydrogels were formed | 7 | Hydrogel stability when shaken by hand [1]: weaker than those formed by Cn acid-ILD-NH2 with the same Cn acid
CCCCCCCCCCCCCCCC(=O)N[C@H](C(=O)N[C@@H](CC(C)C)C(=O)N[C@@H](CC(=O)O)C(=O)O)[C@@H](C)CC [Compound 8] (Palmitoyl-Ile-Leu-Asp-OH) | Hydrogels were formed | 15 | Hydrogel stability when shaken by hand [1]: weaker than those formed by Cn acid-ILD-NH2 with the same Cn acid
CCCCCCCC(=O)N[C@H](C(=O)N[C@H](C(=O)N[C@@H](CC(=O)O)C(N)=O)C(C)C)[C@@H](C)CC [Compound 10] (Octanoyl-Ile-Val-Asp-NH2) | – | 3 | –
CCCCCCCCCCCCCC(=O)N[C@H](C(=O)N[C@@H](CC(C)C)C(=O)N[C@@H](CC(=O)O)C(=O)O)[C@@H](C)CC [Compound 7] (Myristoyl-Ile-Leu-Asp-OH) | Hydrogels were formed | 10 | Hydrogel stability when shaken by hand [1]: weaker than those formed by Cn acid-ILD-NH2 with the same Cn acid
CCCCCCCC(=O)N[C@@H](C)C(=O)N[C@@H](CC(C)C)C(=O)N[C@@H](CC(=O)O)C(N)=O [Compound 11] (Octanoyl-Ala-Leu-Asp-NH2) | – | 3 | –
CCCCCCCC(=O)N[C@H](C(=O)N[C@H](C(=O)N[C@@H](CC(=O)O)C(N)=O)[C@@H](C)CC)[C@@H](C)CC [Compound 14] (Octanoyl-Ile-Ile-Asp-NH2) | – | 5 | –
CCCCCCCCCCCC(=O)N[C@H](C(=O)N[C@@H](CC(C)C)C(=O)N[C@@H](CC(=O)O)C(N)=O)[C@@H](C)CC [Compound 3] (Lauroyl-Ile-Leu-Asp-NH2) | – | 6 | Concentration at which hydrogel forms in PBS [1]: ≥ 0.25 % (w/v)
CC[C@H](C)[C@H](N)C(=O)N[C@@H](CC(C)C)C(=O)N[C@@H](CC(=O)O)C(N)=O [Compound 1] (H-Ile-Leu-Asp-NH2) | did not gelate | – | –
